Positions count from the first letter of the chain named.
Assays:
rP2X4R E285A mutant = target: T1, rP2X4R E285A mutant (Rattus norvegicus, UniProt P51577, E285A); assay: whole-cell patch clamp, HEK293T cells expressing mutant; assay type: cell-based
T1 construct: expressed in transfected cells; host or cells: HEK293T
T1 sequence (P51577 1-388 E285A): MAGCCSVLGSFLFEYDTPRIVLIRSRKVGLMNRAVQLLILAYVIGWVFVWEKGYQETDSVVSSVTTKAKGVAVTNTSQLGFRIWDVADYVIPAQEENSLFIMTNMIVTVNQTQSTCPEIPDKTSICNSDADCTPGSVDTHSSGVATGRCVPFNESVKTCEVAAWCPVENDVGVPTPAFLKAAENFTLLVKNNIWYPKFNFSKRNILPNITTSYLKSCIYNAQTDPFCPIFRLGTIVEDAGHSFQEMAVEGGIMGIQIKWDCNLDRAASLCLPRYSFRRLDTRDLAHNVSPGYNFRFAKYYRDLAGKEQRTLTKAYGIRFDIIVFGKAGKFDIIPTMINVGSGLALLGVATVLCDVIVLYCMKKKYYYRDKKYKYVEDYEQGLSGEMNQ

rP2X4R P207A mutant = target: T2, rP2X4R P207A mutant (Rattus norvegicus, UniProt P51577, P207A); assay: as above; assay type: cell-based
T2 construct: expressed in transfected cells; host or cells: HEK293T
T2 sequence (P51577 1-388 P207A): T1 sequence (P51577 1-388 E285A) with P207A, A285E

[1] = 100 µM ATP 60 s, biexponential fit
[2] = contribution of τdes2, 100 µM ATP 60 s
[3] = naïve receptors, 2–5 s application
[4] = 3 µM IVM 4-6 min vs IVM-untreated

Row | Compound | τdes1 (rP2X4R E285A mutant; [1]) [s] | τdes2 (rP2X4R E285A mutant; [1]) [s] | Imax (rP2X4R E285A mutant; 100–1000 µM ATP) [nA] | Imax+IVM (rP2X4R E285A mutant; ATP after 3 µM IVM 4-6 min) [nA] | A2 /(A1+A2) (rP2X4R E285A mutant; [2]) [%] | τoff +IVM (rP2X4R E285A mutant; decay after removal of 1 or 3 µM ATP, 3 µM IVM) [s] | EC50 (rP2X4R E285A mutant; [3]) [µM] | τdes (rP2X4R E285A mutant; weighted, 100 µM ATP 60 s) [s] | τdes1 (rP2X4R P207A mutant; [1]) [s] | τdes2 (rP2X4R P207A mutant; [1]) [s] | A2 /(A1+A2) (rP2X4R P207A mutant; [2]) [%] | EC50 (rP2X4R P207A mutant; [3]) [µM] | τdes (rP2X4R P207A mutant; weighted, 100 µM ATP 60 s) [s] | Fold incr. Imax (rP2X4R E285A mutant; [4]) [fold] | Fold incr. Imax (rP2X4R P207A mutant; [4]) [fold]
1 | Nc1ncnc2c1ncn2[C@@H]1O[C@H](COP(=O)(O)OP(=O)(O)OP(=O)(O)O)[C@@H](O)[C@H]1O [ATP] | 0.9 ± 0.2 | 8.5 ± 3.6 | 2.0 ± 0.5 | 2.6 ± 0.6 | 65 ± 2 | 24 ± 4.3 | 7.1 ± 3 | 6.0 ± 2.6 | 0.7 ± 0.1 | 5.6 ± 0.2 | 71 ± 2 | 2.1 ± 1.1 | 4.1 ± 0.2 | – | –
2 | CC[C@H](C)[C@H]1O[C@]2(CC[C@@H]1C)C[C@@H]1C[C@@H](C/C=C(\C)[C@@H](O[C@H]3C[C@H](OC)[C@@H](O[C@H]4C[C@H](OC)[C@@H](O)[C@H](C)O4)[C@H](C)O3)[C@@H](C)/C=C/C=C3\CO[C@@H]4[C@H](O)C(C)=C[C@@H](C(=O)O1)[C@]34O)O2 [IVM, ivermectin] | – | – | – | – | – | – | – | – | – | – | – | – | – | 1.3 ± 0.4 | 1.5 ± 0.3

Source: article PMC4232510, “Identification of Functionally Important Residues of the Rat P2X4 Receptor by Alanine Scanning Mutagenesis of the Dorsal Fin and Left Flipper Domains” (PLoS ONE, 2014)
